Consider 52 molecules from patent publication US11274090B2, “P300/CBP HAT inhibitors” (Constellation Pharmaceuticals, Inc., priority 2018, dated 2022).

p300 HAT domain (residues 1287-1666), sequence (Q09472 1287-1666): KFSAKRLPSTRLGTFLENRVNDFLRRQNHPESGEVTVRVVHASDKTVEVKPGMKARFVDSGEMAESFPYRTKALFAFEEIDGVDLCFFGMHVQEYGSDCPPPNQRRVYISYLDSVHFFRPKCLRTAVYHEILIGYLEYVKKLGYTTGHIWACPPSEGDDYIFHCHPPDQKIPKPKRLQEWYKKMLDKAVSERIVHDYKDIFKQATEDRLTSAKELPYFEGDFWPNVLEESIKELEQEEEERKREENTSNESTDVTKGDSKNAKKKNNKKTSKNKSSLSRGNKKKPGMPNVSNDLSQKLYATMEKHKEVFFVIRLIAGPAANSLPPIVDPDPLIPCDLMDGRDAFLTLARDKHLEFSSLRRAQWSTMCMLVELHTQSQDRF

The experiment addresses p300 HAT domain (residues 1287-1666) (Homo sapiens (Human), UniProt Q09472). Briefly: p300 HAT SPA assay (scintillation proximity assay, acetylation of biotinylated H3(1-21) peptide). Type of experiment: biochemical. Conditions: average of at least 2 replicate titrations. In outline: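 Scintillation proximity readout of acetylated biotin-H3(1-21) captured on streptavidin plates after 1.5 hr at RT; enzyme was Ni2+/anion-exchange-purified HAT domain in 20 mM Hepes pH 7.5. Inhibitor IC50s calculated from the data.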
Background: In a scintillation proximity assay essentially only radioactivity close to the scintillant gives light.
The term IC50 denotes the concentration that gives 50% inhibition. High values mean a need for much substance, low ones inhibition by little substance. `Cn1cc(-c2ccc(NC(=O)C(NCCc3ccc(C#N)cc3)c3ccc(C(F)(F)F)cc3)nc2)cn1` (single isomer, unassigned) [120 Isomer 1] returned a half-maximal inhibitory concentration (IC50) of over 2000 nM.
To `CO[C@@H]1CCN(c2ccc(NC(=O)C(NCC(C)c3ccc(C#N)cc3)c3ccccc3)nc2)C1` (single isomer, unassigned) [92 Isomer 3] belongs 599 nM; to `Cc1cc(C#N)nn1CCNC(C(=O)Nc1ccc(-c2cnn(C)c2)cn1)c1ccccc1` (single isomer, unassigned) [145 Isomer 1], 783 nM.
Next, `Cn1cc(-c2ccc(NC(=O)C(NCCc3ccc(C#N)cc3)c3ccc(C#N)cc3)nc2)cn1` (single isomer, unassigned) [119 Isomer 2]: 1590 nM.
Molecule `CC(CNC(C(=O)Nc1ccc(-c2cnn(C)n2)cn1)c1ccccc1)c1ccc(C#N)cc1` (single isomer, unassigned) [98 Isomer 3] gave an IC50 of over 2000 nM.
Molecule `Cc1cc(NC(=O)C(NC[C@@H](C)c2ccc(C#N)cc2)c2ccccc2)ncc1-c1cnn(C)c1` (single isomer, unassigned) [115 Isomer 1] yielded an IC50 of over 2000 nM.
For the molecule `CC(CNC(C(=O)Nc1ccc(-c2cn[nH]c2)cn1)c1ccccc1)c1ccc(C#N)cc1` (single isomer, unassigned) [104 Isomer 4], the IC50 turned out to be 1020 nM.
In turn, `CC(CNC(C(=O)Nc1ccc(N2CCN(C)C(=O)C2)cn1)c1ccccc1)c1ccc(C#N)cc1` (single isomer, unassigned) [101 Isomer 4] came in with an IC50 of over 2000 nM.
As to `N#Cc1ccc(CCNC(C(=O)Nc2ccc(C3CCC3)cn2)c2ccccc2)cc1` (single isomer, unassigned) [46 Isomer 2], it took 486 nM to reach half-maximal inhibition (IC50).
Regarding `Cc1ccc(-c2ccc(NC(=O)C(NCC(C)c3ccc(C#N)cc3)c3ccccc3)nc2)nn1` (single isomer, unassigned) [15 Isomer 3], the IC50 is over 2000 nM.
Consider `CC(CNC(C(=O)Nc1ccc(N2CCN(C)C(=O)C2)cn1)c1cnn(C)c1)c1ccc(C#N)cc1` (single isomer, unassigned) [136 Isomer 4], for which the IC50 was over 2000 nM.
Molecule `CC(CNC(C(=O)Nc1ccc(-c2cnn(C)n2)cn1)c1ccccc1)c1ccc(C#N)cc1` (single isomer, unassigned) [98 Isomer 1] gave an IC50 of 571 nM.
In turn, `Cc1noc(C)c1-c1ccc(NC(=O)C(NC[C@@H](C)c2ccc(C#N)cc2)c2ccccc2)nc1` (single isomer, unassigned) [131 Isomer 2] yielded an IC50 of 38 nM.
As to `CCCCCCc1ccc(C(NCCc2ccc(C#N)cc2)C(=O)Nc2ccc(-c3cnn(C)c3)cn2)cc1` (single isomer, unassigned) [121 racemic], the IC50 was over 2000 nM.
To `CC(CNC(C(=O)Nc1ccc(N2CCN(CC(F)(F)F)C(=O)C2)cn1)c1ccccc1)c1ccc(C#N)cc1` (single isomer, unassigned) [103 Isomer 3] belongs 1000 nM.
Take `CN1CCN(c2ccc(NC(=O)C(NCCc3ccc(Cl)cc3)c3ccccc3)nc2)CC1` (single isomer, unassigned) [69 Isomer 2]: the IC50 is over 2000 nM.
In turn, `CCN(CC)C(=O)C1CCN(c2ccc(NC(=O)C(NCCc3ccc(C#N)cc3)c3ccccc3)nc2)CC1` (single isomer, unassigned) [64 Isomer 2] returned an IC50 of 568 nM.
As for `CC1C(=O)N(C)CCN1c1ccc(NC(=O)C(NC[C@@H](C)c2ccc(C#N)cc2)c2ccccc2)nc1` (single isomer, unassigned) [126 Isomer 4], the IC50 came out at 22 nM.
To `CC1CN(C)C(=O)CN1c1ccc(NC(=O)C(NC[C@@H](C)c2ccc(C#N)cc2)c2ccccc2)nc1` (single isomer, unassigned) [125 Isomer 3] belongs 17.4 nM.
In turn, `CO[C@@H]1CCN(c2ccc(NC(=O)C(NCC(C)c3ccc(C#N)cc3)c3ccccc3)nc2)C1` (single isomer, unassigned) [92 Isomer 1] showed an IC50 of 881 nM. Compared with the last molecule, the IC50 is about 51-fold higher.
In the case of `CC(Cc1ccc(Cl)cc1)NC(C(=O)Nc1ccc(-c2cnn(C)c2)cc1)c1ccccc1` (single isomer, unassigned) [3 Isomer 1], the IC50 was 196 nM. Against the preceding molecule, the IC50 is about 4.5-fold lower.
In turn, `Cn1cc(-c2ccc(NC(=O)C(NCCc3ccc(C#N)cn3)c3ccccc3)nc2)cn1` (single isomer, unassigned) [142 Isomer 2] registered an IC50 of 210 nM.
To `CN1CCN(c2ccc(NC(=O)C(NCCc3ccc(C#N)cc3)c3ccccc3)nc2)CC1` (single isomer, unassigned) [49 Isomer 2] belongs over 5000 nM.
In turn, “(S,R)-, (R,S)-, (S,S)-, (R,R)-(2-((2-(4-cyanophenyl)propyl)amino)-N-(5-(1-(difluoromethyl)-1H-pyrazol-4-yl)pyridin-2-yl)-2-phenylacetamide [20 Isomer 3]” had an IC50 of 1630 nM.
`CC(CNC(C(=O)Nc1ccc(-c2cnn(C(C)(C)C#N)c2)cn1)c1ccccc1)c1ccc(C#N)cc1` (single isomer, unassigned) [47 Isomer 3] returned an IC50 of over 2000 nM.
Next, `CN1CCN(c2ccc(NC(=O)C(NCCc3ccc(C#N)cc3)c3ccccc3)nc2)CCC1=O` (single isomer, unassigned) [71 Isomer 2]: over 2000 nM; `CC(CNC(C(=O)Nc1ccc(-c2cnn(C)n2)cn1)c1ccccc1)c1ccc(C(F)(F)F)cc1` (single isomer, unassigned) [99 Isomer 4]: 28.3 nM.
Next, `CC(CNC(C(=O)Nc1ccc(-n2cnc(C(C)(C)C)c2)cn1)c1ccccc1)c1ccc(C#N)cc1` (single isomer, unassigned) [59 Isomer 2]: over 2000 nM; `Cn1cc(-c2ccc(NC(=O)C(NCCc3ccc(Cl)cc3C#N)c3ccccc3)nc2)cn1` (single isomer, unassigned) [94 Isomer 2]: over 2000 nM.
`CC(CNC(C(=O)Nc1ccc(-c2cnn(C)c2)cc1)c1ccccc1)c1ccc(Cl)cc1` (single isomer, unassigned) [2 Isomer 4] returned an IC50 of over 5000 nM.
For the molecule `N#Cc1ccc(CCNC(C(=O)Nc2ccc(N3CCC(F)(F)CC3)cn2)c2ccccc2)cc1` (single isomer, unassigned) [38 Isomer 2], the IC50 was over 2000 nM.
As to `Cc1nnc2n1CCN(c1ccc(NC(=O)C(NCCc3ccc(C#N)cc3)c3ccccc3)nc1)C2` (single isomer, unassigned) [60 Isomer 2], the 50% inhibitory concentration (IC50) is over 2000 nM.
The molecule `CC(CNC(C(=O)Nc1ccc(-n2cnc(C(C)(C)C)c2)cn1)c1ccccc1)c1ccc(C#N)cc1` (single isomer, unassigned) [59 Isomer 1] returned an IC50 of 1500 nM.
As for `CC(CNC(C(=O)Nc1ccc(-c2cnn(C(C)(C)CO)c2)cn1)c1ccccc1)c1ccc(C#N)cc1` (single isomer, unassigned) [8 Isomer 1], it took 309 nM to reach half-maximal inhibition (IC50).
Regarding `CC(CNC(C(=O)Nc1ccc(-c2cnn(C)c2)cn1)c1ccccc1)c1ccc(C#N)cc1F` (single isomer, unassigned) [90 Isomer 4], the IC50 is over 2000 nM.
`Cc1nc(NC(=O)C(NCC(C)c2ccc(C#N)cc2)c2ccccc2)ccc1-c1cnn(C)c1` (single isomer, unassigned) [39 Isomer 1] gave an IC50 of over 2000 nM.
Consider `Cn1cc(-c2ccc(NC(=O)C(NCCc3ccc(C#N)cc3)c3ccc(C#N)cc3)nc2)cn1` (single isomer, unassigned) [119 Isomer 1], for which 374 nM corresponded to half-maximal inhibition (IC50).
`Cc1ncc(-c2ccc(NC(=O)[C@@H](NC[C@@H](C)c3ccc(C#N)cc3)c3ccccc3)nc2)cn1` (single isomer, unassigned; isomer 1) [6 Isomer 1]: inhibition was half-maximal at 1680 nM (IC50).
For the molecule `CO[C@H]1CCN(c2ccc(NC(=O)C(NCC(C)c3ccc(C#N)cc3)c3ccccc3)nc2)C1` (single isomer, unassigned) [93 Isomer 1], the IC50 turned out to be 412 nM.
`CC(CNC(C(=O)Nc1ccc(-c2cn(C)nn2)cn1)c1ccccc1)c1ccc(C#N)cc1` (single isomer, unassigned) [100 Isomer 3] had an IC50 of over 2000 nM.
To `Cn1cc(-c2ccc(NC(=O)C(NCCc3ccc(C#N)cc3)c3ccccc3)nn2)cn1` (single isomer, unassigned) [57 Isomer 2] belongs over 5000 nM; to `Cn1cc(-c2ccc(NC(=O)[C@@H](NCCc3ccc(Cl)cc3)c3ccccc3)cc2)cn1` (single isomer, unassigned) [5 Isomer 2], over 5000 nM.
In turn, `Cc1ccc(C(C)CNC(C(=O)Nc2ccc(-c3cnn(C)c3)cn2)c2ccccc2)cn1` (single isomer, unassigned) [143 Isomer 3] had an IC50 of over 2000 nM.
In turn, `Cn1cc(-c2ccc(NC(=O)C(NCCc3ccc(C#N)cn3)c3ccccc3)nc2)cn1` (single isomer, unassigned) [142 Isomer 1] showed an IC50 of over 2000 nM.
Consider `Cc1ccc(CCNC(C(=O)Nc2ccc(-c3cnn(C)c3)cn2)c2ccccc2)cn1` (single isomer, unassigned) [141 Isomer 2], for which the IC50 is over 2000 nM.
`CC(CNC(C(=O)Nc1ccc(-c2cnn(C)c2)cn1)c1cnn(C)c1)c1ccc(C#N)cc1` (single isomer, unassigned) [127 Isomer 1] displayed an IC50 of over 2000 nM.
For `Cn1cc(-c2ccc(NC(=O)C(NCCc3ccc(S(N)(=O)=O)cc3)c3ccccc3)cc2)cn1` (single isomer, unassigned) [4 Isomer 2], it took 1370 nM to reach half-maximal inhibition (IC50). This counts as single-digit micromolar.
With `CC(CNC(C(=O)Nc1ccc(-c2cnn(C(C)(C)CO)c2)cn1)c1ccccc1)c1ccc(C#N)cc1` (single isomer, unassigned) [8 Isomer 3], half-maximal inhibition (IC50) required 1230 nM.
To `C[C@H](CNC(C(=O)Nc1ccc(-c2cnn(CC(N)=O)c2)cn1)c1ccccc1)c1ccc(C#N)cc1` (single isomer, unassigned) [147 Isomer 2] belongs 6.16 nM; to `CC(CNC(C(=O)Nc1ccc(-c2cnn(C(F)F)c2)cn1)c1cnn(C)c1)c1ccc(C#N)cc1` (single isomer, unassigned) [128 Isomer 3], over 2000 nM; to `CC(CNC(C(=O)Nc1ccc(-c2cnn(C)c2)cn1)c1ccccc1)c1ccc(C#N)cc1F` (single isomer, unassigned) [90 Isomer 1], 210 nM.
Molecule `Cn1cc(-c2ccc(NC(=O)C(NCCc3ccc(C(F)(F)F)nc3)c3ccccc3)nc2)cn1` (single isomer, unassigned) [140 Isomer 1] registered an IC50 of 153 nM.
